Test results: ChEMBL document CHEMBL4808186, “Structure-Based Discovery of Pyrimidine Aminobenzene Derivatives as Potent Oral Reversal Agents against P-gp- and BCRP-Mediated Multidrug Resistance” (J Med Chem, 2021)
The source made the active and inactive calls. No cut-off for these calls is given here.

Columns and labels:
[1] = AUC (0 to t) in Sprague-Dawley rat at 5 mg/kg, iv by UHPLC-MS analysis; type: ADME, organism-based; design: dose 5 mg/kg; settings: in vivo
[2] = AUC (0 to t) in Sprague-Dawley rat at 20 mg/kg, po by UHPLC-MS analysis; type: ADME, organism-based; design: dose 20 mg/kg; settings: in vivo
[3] = AUC (0 to t) in Sprague-Dawley rat at 20 mg/kg, po in presence of N-(2-(6,7-Dimethoxy-3,4-dihydroisoquinolin-2(1H)-yl)ethyl)-3-((4-(furan-2-yl)pyrimidin-2-yl)amino)-4-methylbenzamide by UHPLC-MS analysis; type: ADME, organism-based; design: dose 20 mg/kg; settings: in vivo
[4] = Cmax in Sprague-Dawley rat at 5 mg/kg, iv by UHPLC-MS analysis; type: ADME, organism-based; design: route intravenous, dose 5 mg/kg; settings: in vivo
[5] = Cmax in Sprague-Dawley rat at 20 mg/kg, po by UHPLC-MS analysis; type: ADME, organism-based; design: route oral, dose 20 mg/kg; settings: in vivo
[6] = Cmax in Sprague-Dawley rat at 20 mg/kg, po in presence of N-(2-(6,7-Dimethoxy-3,4-dihydroisoquinolin-2(1H)-yl)ethyl)-3-((4-(furan-2-yl)pyrimidin-2-yl)amino)-4-methylbenzamide by UHPLC-MS analysis; type: ADME, organism-based; design: route oral, dose 20 mg/kg; settings: in vivo
[7] = Tmax in Sprague-Dawley rat at 5 mg/kg, iv by UHPLC-MS analysis; type: ADME, organism-based; settings: in vivo
[8] = Tmax in Sprague-Dawley rat at 20 mg/kg, po by UHPLC-MS analysis; type: ADME, organism-based; settings: in vivo
[9] = Tmax in Sprague-Dawley rat at 20 mg/kg, po in presence of N-(2-(6,7-Dimethoxy-3,4-dihydroisoquinolin-2(1H)-yl)ethyl)-3-((4-(furan-2-yl)pyrimidin-2-yl)amino)-4-methylbenzamide by UHPLC-MS analysis; type: ADME, organism-based; settings: in vivo
[10] = Apparent oral volume of distribution in Sprague-Dawley rat at 5 mg/kg, iv by UHPLC-MS analysis; type: ADME, organism-based; settings: in vivo
[11] = Apparent oral volume of distribution in Sprague-Dawley rat at 20 mg/kg, po by UHPLC-MS analysis; type: ADME, organism-based; settings: in vivo
[12] = Apparent oral volume of distribution in Sprague-Dawley rat at 20 mg/kg, po in presence of N-(2-(6,7-Dimethoxy-3,4-dihydroisoquinolin-2(1H)-yl)ethyl)-3-((4-(furan-2-yl)pyrimidin-2-yl)amino)-4-methylbenzamide by UHPLC-MS analysis; type: ADME, organism-based; settings: in vivo
[13] = Apparent oral clearance in Sprague-Dawley rat at 5 mg/kg, iv by UHPLC-MS analysis; type: ADME, organism-based; settings: in vivo
[14] = Apparent oral clearance in Sprague-Dawley rat at 20 mg/kg, po by UHPLC-MS analysis; type: ADME, organism-based; settings: in vivo
[15] = Apparent oral clearance in Sprague-Dawley rat at 20 mg/kg, po in presence of N-(2-(6,7-Dimethoxy-3,4-dihydroisoquinolin-2(1H)-yl)ethyl)-3-((4-(furan-2-yl)pyrimidin-2-yl)amino)-4-methylbenzamide by UHPLC-MS analysis; type: ADME, organism-based; settings: in vivo
[16] = Bioavailability in Sprague-Dawley rat at 5 mg/kg, iv by UHPLC-MS analysis; type: ADME, organism-based; settings: in vivo
[17] = Oral bioavailability in Sprague-Dawley rat at 20 mg/kg by UHPLC-MS analysis; type: ADME, organism-based; settings: in vivo
[18] = Oral bioavailability in Sprague-Dawley rat at 20 mg/kg in presence of N-(2-(6,7-Dimethoxy-3,4-dihydroisoquinolin-2(1H)-yl)ethyl)-3-((4-(furan-2-yl)pyrimidin-2-yl)amino)-4-methylbenzamide by UHPLC-MS analysis; type: ADME, organism-based; settings: in vivo
in vivo [19] = settings: Sprague-Dawley, rat, iv, 5 mg/kg
Description: Half life in Sprague-Dawley rat at 5 mg/kg, iv by UHPLC-MS analysis

in vivo [20] = settings: Sprague-Dawley, rat, po, 20 mg/kg
Description: Half life in Sprague-Dawley rat at 20 mg/kg, po by UHPLC-MS analysis

K562 = assay: Cytotoxicity against human K562 cells incubated for 48 hrs by MTT assay; type: functional, cell-based; settings: K562, 48 h
K562/A02 [21] = assay: Cytotoxicity against P-gp overexpressing human K562/A02 cells incubated for 48 hrs by MTT assay; type: functional, cell-based; settings: K562/A02, 48 h, read-out: IC50
[22] = n-Octanol/water partition coefficient, logP of the compound by UHPLC analysis; type: physicochemical
[23] = target: T1, ATP-dependent translocase ABCB1 (Homo sapiens, UniProt P08183); assay: Inhibition of P-gp-mediated multidrug resistance in human K562/A02 cells assessed as Adriamycin accumulation at 1 to 10 uM pretreated 1 hr followed by treated with adriamycin measured after 180 mins by fluorescence microscopy; type: cell-based; settings: k562/a02, 4 h, dose 1-10 µM, time 240 min
T1 sequence (P08183 whole entry): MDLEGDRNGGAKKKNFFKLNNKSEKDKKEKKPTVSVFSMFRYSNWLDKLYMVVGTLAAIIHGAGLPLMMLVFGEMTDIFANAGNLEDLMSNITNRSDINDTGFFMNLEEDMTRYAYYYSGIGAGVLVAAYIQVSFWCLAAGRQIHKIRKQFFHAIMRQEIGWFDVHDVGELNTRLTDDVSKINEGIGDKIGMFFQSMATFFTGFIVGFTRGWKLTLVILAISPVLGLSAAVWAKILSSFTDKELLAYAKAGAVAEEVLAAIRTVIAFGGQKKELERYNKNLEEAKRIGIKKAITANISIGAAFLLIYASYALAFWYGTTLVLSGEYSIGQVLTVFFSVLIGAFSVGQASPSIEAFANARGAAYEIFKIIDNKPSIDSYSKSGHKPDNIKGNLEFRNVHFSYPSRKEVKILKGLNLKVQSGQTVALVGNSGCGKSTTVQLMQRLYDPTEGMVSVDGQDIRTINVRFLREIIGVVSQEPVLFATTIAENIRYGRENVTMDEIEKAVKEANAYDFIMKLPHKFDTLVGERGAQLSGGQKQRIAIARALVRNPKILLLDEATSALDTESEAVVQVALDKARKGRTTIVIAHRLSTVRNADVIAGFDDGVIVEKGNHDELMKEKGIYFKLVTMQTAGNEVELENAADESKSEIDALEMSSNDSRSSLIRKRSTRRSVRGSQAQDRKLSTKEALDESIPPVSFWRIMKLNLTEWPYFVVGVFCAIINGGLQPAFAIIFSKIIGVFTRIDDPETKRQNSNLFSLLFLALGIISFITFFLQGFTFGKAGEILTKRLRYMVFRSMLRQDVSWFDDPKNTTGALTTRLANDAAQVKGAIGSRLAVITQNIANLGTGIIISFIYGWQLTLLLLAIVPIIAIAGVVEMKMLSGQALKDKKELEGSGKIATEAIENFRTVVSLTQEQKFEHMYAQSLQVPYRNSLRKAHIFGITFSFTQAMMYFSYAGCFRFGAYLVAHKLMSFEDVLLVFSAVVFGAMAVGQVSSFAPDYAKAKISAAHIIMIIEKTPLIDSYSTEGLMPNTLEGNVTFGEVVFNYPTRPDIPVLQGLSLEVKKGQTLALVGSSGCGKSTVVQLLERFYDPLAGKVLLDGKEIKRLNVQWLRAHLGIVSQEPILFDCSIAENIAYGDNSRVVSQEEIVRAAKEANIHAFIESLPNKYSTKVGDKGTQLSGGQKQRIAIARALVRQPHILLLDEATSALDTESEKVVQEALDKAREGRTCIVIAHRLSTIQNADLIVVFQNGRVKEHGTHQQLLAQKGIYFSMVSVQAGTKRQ

MDCK-II [24] = assay: Inhibition of BCRP-mediated multidrug resistance in MDCK-II cells assessed as mitoxantrone accumulation […] pretreated 1 hr followed by treated with mitoxantrone measured after 180 mins by fluorescence microscopy; type: cell-based; settings: Canis lupus familiaris, time 240.0 min
[25] = target: T1, ATP-dependent translocase ABCB1; assay: Inhibition of P-gp-mediated multidrug resistance in human K562/A02 cells assessed as Adriamycin accumulation pretreated 1 hr followed by treated with adriamycin measured after 180 mins by flow cytometry; type: cell-based; settings: k562/a02, 4 h, time 240 min
MDCK-II [26] = assay: Inhibition of BCRP-mediated multidrug resistance in MDCK-II cells assessed as mitoxantrone accumulation at 0.1 to 5 uM pretreated 1 hr followed by treated with mitoxantrone measured after 180 mins by flow cytometry; type: cell-based; settings: Canis lupus familiaris, dose 0.1-5 µM, time 240.0 min
[27] = target: T1, ATP-dependent translocase ABCB1; assay: Inhibition of P-gp-mediated multidrug resistance in human K562/A02 cells assessed as suppression of Rh123 efflux at 10 uM treated after 90 mins of Rh123 treatment measure up to 120 mins by flow cytometry; type: cell-based; settings: k562/a02, 10 µM
K562/A02 [28] = assay: Potentiation of adriamycin-induced apoptosis in human K562/A02 cells assessed as viable cells at 0.5 uM incubated for 48 hrs in presence of 10 uM adriamycin by Annexin-V/FITC-based flow cytometry (reference value: 96.5%); type: functional; settings: read-out: Activity
K562/A02 [29] = assay: Potentiation of adriamycin-induced apoptosis in human K562/A02 cells assessed as early apoptotic cells at 0.5 uM incubated for 48 hrs in presence of 10 uM adriamycin by Annexin-V/FITC-based flow cytometry (reference value: 2.9%); type: functional
K562/A02 [30] = assay: Potentiation of adriamycin-induced apoptosis in human K562/A02 cells assessed as late apoptotic cells at 0.5 uM incubated for 48 hrs in presence of 10 uM adriamycin by Annexin-V/FITC-based flow cytometry (reference value: 0.4%); type: functional
K562/A02 [31] = assay: Potentiation of adriamycin-induced apoptosis in human K562/A02 cells assessed as necrotic cells at 0.5 uM incubated for 48 hrs in presence of 10 uM adriamycin by Annexin-V/FITC-based flow cytometry (reference value: 0.3%); type: functional
K562/A02 [32] = assay: Potentiation of adriamycin-induced apoptosis in human K562/A02 cells assessed as viable cells at 5 uM incubated for 48 hrs in presence of 10 uM adriamycin by Annexin-V/FITC-based flow cytometry (reference value: 96.5%); type: functional; settings: read-out: Activity
K562/A02 [33] = assay: Potentiation of adriamycin-induced apoptosis in human K562/A02 cells assessed as early apoptotic cells at 5 uM incubated for 48 hrs in presence of 10 uM adriamycin by Annexin-V/FITC-based flow cytometry (reference value: 2.9%); type: functional
K562/A02 [34] = assay: Potentiation of adriamycin-induced apoptosis in human K562/A02 cells assessed as late apoptotic cells at 5 uM incubated for 48 hrs in presence of 10 uM adriamycin by Annexin-V/FITC-based flow cytometry (reference value: 0.4%); type: functional
K562/A02 [35] = assay: Potentiation of adriamycin-induced apoptosis in human K562/A02 cells assessed as necrotic cells at 5 uM incubated for 48 hrs in presence of 10 uM adriamycin by Annexin-V/FITC-based flow cytometry (reference value: 0.3%); type: functional
K562/A02 [36] = assay: Potentiation of adriamycin-induced apoptosis in human K562/A02 cells assessed as viable cells at 10 uM incubated for 48 hrs in presence of 10 uM adriamycin by Annexin-V/FITC-based flow cytometry (reference value: 96.5%); type: functional; settings: read-out: Activity
K562/A02 [37] = assay: Potentiation of adriamycin-induced apoptosis in human K562/A02 cells assessed as early apoptotic cells at 10 uM incubated for 48 hrs in presence of 10 uM adriamycin by Annexin-V/FITC-based flow cytometry (reference value: 2.9%); type: functional
K562/A02 [38] = assay: Potentiation of adriamycin-induced apoptosis in human K562/A02 cells assessed as late apoptotic cells at 10 uM incubated for 48 hrs in presence of 10 uM adriamycin by Annexin-V/FITC-based flow cytometry (reference value: 0.4%); type: functional
K562/A02 [39] = assay: Potentiation of adriamycin-induced apoptosis in human K562/A02 cells assessed as necrotic cells at 10 uM incubated for 48 hrs in presence of 10 uM adriamycin by Annexin-V/FITC-based flow cytometry (reference value: 0.3%); type: functional
K562/A02 [40] = assay: Effect on P-gp expression in human K562/A02 cells at 1 to 10 uM incubated for 48 hrs by Western blot analysis; type: functional, cell-based; settings: dose 1-10 µM
MDCK-II [41] = assay: Effect on BCRP expression in MDCK-II cells at 1 to 10 uM incubated for 48 hrs by Western blot analysis; type: functional, cell-based; settings: Canis lupus familiaris, dose 1-10 µM
K562/A02 [42] = assay: Antitumor activity against human K562/A02 cells xenografted in BALB/c mouse assessed as reduction in tumor size at 4 mg/kg, iv once every 2 days for 14 days in presence of 2 mg/kg adriamycin; type: functional, organism-based; settings: time 2.0 day
K562/A02 [43] = assay: Antitumor activity against human K562/A02 cells xenografted in BALB/c mouse assessed as reduction in tumor volume at 4 mg/kg, iv once every 2 days for 14 days in presence of 2 mg/kg adriamycin; type: functional, organism-based; settings: time 2.0 day
K562/A02 [44] = assay: Antitumor activity against human K562/A02 cells xenografted in BALB/c mouse assessed as reduction in tumor weight at 4 mg/kg, iv once every 2 days for 14 days in presence of 2 mg/kg adriamycin; type: functional, organism-based; settings: time 2.0 day
K562/A02 [45] = assay: Antitumor activity against human K562/A02 cells xenografted in BALB/c mouse assessed as degeneration and necrosis of tumor tissue at 4 mg/kg, iv single dose in presence of 2 mg/kg adriamycin by HE staining; type: functional, organism-based
[46] = Toxicity in BALB/c mouse xenografted with human K562/A02 cells assessed as degeneration and necrosis of liver tissue at 4 mg/kg, iv once every 2 days for 14 days in presence of 2 mg/kg adriamycin by HE staining; type: organism-based; settings: in vivo, 48 h, time 2 day
[47] = Toxicity in BALB/c mouse xenografted with human K562/A02 cells assessed as degeneration and necrosis of kidney tissue at 4 mg/kg, iv once every 2 days for 14 days in presence of 2 mg/kg adriamycin by HE staining; type: organism-based; settings: in vivo, 48 h, time 2 day
MDCK-II [48] = assay: cells; settings: Canis lupus familiaris, 48 h
Description: Cytotoxicity against MDCK-II cells incubated for 48 hrs by MTT assay

MDCK-II [49] = assay: cells; settings: Canis lupus familiaris, 48 h; remark: listed apart in the source
Description: Cytotoxicity against BCRP-overexpressing MDCK-II cells incubated for 48 hrs by MTT assay

## CC(=O)O[C@H]1C(=O)[C@@]2(C)[C@H]([C@H](OC(=O)c3ccccc3)[C@]3(O)C[C@H](OC(=O)[C@H](O)[C@@H](NC(=O)c4ccccc4)c4ccccc4)C(C)=C1C3(C)C)[C@]1(OC(C)=O)CO[C@@H]1C[C@@H]2O [PACLITAXEL]
[1]
  AUC(0-t): 1730 ng·h/mL
[2]
  AUC(0-t): 611 ng·h/mL
[3]
  AUC(0-t): 4490 ng·h/mL
[4]
  Cmax: 926 ng/mL
[5]
  Cmax: 233 ng/mL
[6]
  Cmax: 853 ng/mL
[7]
  Tmax: 0.44 h
[8]
  Tmax: 2 h
[9]
  Tmax: 2.65 h
[10]
  Vd/F: 5.06 L
[11]
  Vd/F: 67.4 L
[12]
  Vd/F: 19.06 L
[13]
  CL/F: 2.88 L/h
[14]
  CL/F: 546 mL/min
[15]
  CL/F: 4.43 L/h
[16]
  F: 100%
[17]
  bioavailability: 8.8%
[18]
  bioavailability: 64.7%
In vivo [19]
  half-life: 7.2 min
In vivo [20]
  half-life: 1.35 h

## COc1cc2c(cc1OC)CN(CCNC(=O)c1ccc(C)c(Nc3nccc(-c4ccco4)n3)c1)CC2
K562
  IC50: > 100 µM
K562/A02 [21]
  IC50: > 100 µM
[22]
  logP: 2.13
[23]
  Activity: Active
MDCK-II [24]
  Activity: Active
[25]
  Activity: Dose-Dependent Effect
MDCK-II [26]
  Activity: Active
[27]
  Activity: Active
K562/A02 [28]
  viability at 0.5 µM: 84.8%
K562/A02 [29]
  Activity: 10.9%
K562/A02 [30]
  Activity: 3.2%
K562/A02 [31]
  Activity: 1.1%
K562/A02 [32]
  viability at 5 µM: 76.2%
K562/A02 [33]
  Activity: 12.3%
K562/A02 [34]
  Activity: 9.2%
K562/A02 [35]
  Activity: 2.4%
K562/A02 [36]
  viability at 10 µM: 68.3%
K562/A02 [37]
  Activity: 19.3%
K562/A02 [38]
  Activity: 9.8%
K562/A02 [39]
  Activity: 2.5%
K562/A02 [40]
  Activity: inactive
MDCK-II [41]
  Activity: inactive
K562/A02 [42]
  Activity: Active
K562/A02 [43]
  Activity: Active
K562/A02 [44]
  Activity: Active
K562/A02 [45]
  Activity: Active
[46]
  Activity: Non-Toxic
[47]
  Activity: Non-Toxic
MDCK-II [48]
  IC50: > 100 µM
MDCK-II [49]
  IC50: > 100 µM
